In US5736548A, “6-aryl pyrazolo[3,4-D] pyrimidin-4-ones and compositions and method of use thereof” (Sanofi, priority 1997, dated 1998):
pIC50: −log10 of the molar value. Where “and” joins values, the source holds several entries; their conditions need not be identical. Equal entries are not always repeated. Structures can show the parent of a compound that is named as a salt. Where two headings read alike, the source gives them in different places.

Target: cGMP-PDE V (Homo sapiens, UniProt O76074)
Assay: biochemical
Set-up: species or system various animal species and man
Conditions: for inhibition at 0.1 µM / inhibition at 1 µM / inhibition at 10 µM / inhibition at 0.01 µM: read-out: Percent Inhibition cGMP-PDE V; for pIC50: values separated by / and marked * are separate experimental runs
Experimental: The cGMP-PDE and other PDE isozymes were isolated from cardiovascular tissues (heart and aorta) of various animal species and man by anion-exchange and affinity chromatography as described by Silver et al., Sec. Messeng. Phos. 13:13-25, 1991; PDE activity, in the presence and absence of test compounds was determined essentially as described by Thompson et al., Adv. Cyclic Nucleotide Res. 10:69-92. To determine the potency and selectivity of compounds as PDE inhibitors, compounds are screened for their effect on cyclic nucleotide hydrolysis at 10 μM. […] The IC50 values are calculated from concentration-response curves as described by Tallarida and Murray, Manual of Pharmacologic Calculations with Computer Programs, Procedure 8, Graded Dose-response, pp. 14-19, Springer-Verlag, New York, 1981.

Row | Molecule | inhibition at 0.1 µM (0.1 μM) [%] | inhibition at 1 µM (1 μM) [%] | also measured
1 | 1-cyclopentyl-3-ethyl-6-[2-methyl-2,3-dihydrobenzo[b]furan-5-yl]pyrazolo[3,4-d]pyrimidin-4-one [Example 39] | – | – | Percent Inhibition cGMP-PDE V (0.01 μM): 24%; Percent Inhibition cGMP-PDE V (0.1 μM): 65%
2 | CCc1nn(C2CCCC2)c2nc(-c3ccc(-n4ccnc4)cc3)[nH]c(=O)c12 [8 (b), 1-cyclopentyl-3-ethyl-6-[4-(1-imidazolyl)phenyl]pyrazole[3,4-d]pyrimidin-4-one] | 32 | 70 | –
3 | CCc1[nH]n(C2CCCC2)c2nc(-c3ccccc3OCCN3CCOCC3)nc(=O)c1-2 [11 (c), 1-cyclopentyl-3-ethyl-6-[2-[2-(4-morpholinyl)ethoxy]phenyl]pyrazolo[3,4-d]pyrimidin-4-one monohydrochloride] | – | – | pIC50: 5.57 and 5.35
4 | CCOC(=O)COc1ccccc1-c1nc2n(C3CCCC3)[nH]c(CC)c-2c(=O)n1 [12 (b), 1-cyclopentyl-3-ethyl-6-[2-(ethoxycarbonylmethoxy)phenyl]pyrazolo [3,4-d]pyrimidin-4-one] | 30 | 74 | –
5 | CCCOc1ccccc1-c1nc2[nH]ncc2c(=O)[nH]1 [17 (c), 6-(2-propoxyphenyl)pyrazolo[3,4-d]pyrimidin-4-one 1/4 hydrate] | – | – | inhibition at 0.1 µM: 14%; inhibition at 1 µM: 19%; inhibition at 10 µM: 39%
6 | CCc1[nH]n(C2CCCC2)c2nc(-c3ccc(OCCN4CCOCC4)cc3)nc(=O)c1-2 [18 (b), 1-cyclopentyl-3-ethyl-6-[4-[2-(4-morpholinyl)ethoxy]phenyl]pyrazolo[3,4-d]pyrimidin-4-one] | – | – | pIC50: 6.43
7 | CCOC(=O)COc1cccc(-c2nc3n(C4CCCC4)[nH]c(CC)c-3c(=O)n2)c1 [20 (b), 1-cyclopentyl-3-ethyl-6-[3-(ethoxycarbonylmethoxy)phenyl]pyrazolo[3,4-d]pyrimidin-4-one] | – | – | pIC50: 7.03
8 | CCc1nn(C2CCCC2)c2nc(-c3cccc(OCCN(C)C)c3)[nH]c(=O)c12 [23 (c)] | – | – | pIC50: 6.27
9 | CCc1[nH]n(C2CCCC2)c2nc(-c3ccccc3OCCCN3CCOCC3)nc(=O)c1-2 [26 (c), 1-cyclopentyl-3-ethyl-6-[2-[3-(4-morpholinyl)propoxy]phenyl]pyrazolo[3,4-d]pyrimidin-4-one] | – | 28 | –
10 | CCOc1cc(Cl)ccc1-c1nc2n(C3CCCC3)[nH]c(CC)c-2c(=O)n1 [29 (b), 1-cyclopentyl-3-ethyl-6-(4-chloro-2-ethoxyphenyl)pyrazolo[3,4-d]pyrimidin-4-one] | – | – | pIC50: 8.13 and 8.08
11 | CCc1[nH]n(C2CCCC2)c2nc(-c3ccccc3OCCOC)nc(=O)c1-2 [34 (b), 1-cyclopentyl-3-ethyl-6-[2-[2-(methoxy)ethoxy]phenyl]pyrazolo[3,4-d]pyrimidin-4-one] | 56 | – | inhibition at 0.01 µM (0.01 μM): 28%
12 | CCc1[nH]n(C2CCCC2)c2nc(-c3cc(OCCN4CCOCC4)cc(OCCN4CCOCC4)c3)nc(=O)c1-2 [38 (b), 1-cyclopentyl-3-ethyl-6-[3,5-di[2-(4-morpholinyl)ethoxy]phenyl]pyrazolo[3,4-d]pyrimidin-4-one] | 63 | – | inhibition at 0.01 µM (0.01 μM): 11%
13 | CCc1[nH]n(C2CCCC2)c2nc(-c3cccc(OCC(=O)N4CCOCC4)c3)nc(=O)c1-2 [40 (d), 1-cyclopentyl-3-ethyl-6-[3-(4-morpholinylcarbonylmethoxy)-phenyl]pyrazolo[3,4-d]pyrimidin-4-one] | 47 | 74 | –
14 | CCc1[nH]n(C2CCCC2)c2nc(-c3cccc(OC4CCCCN(C)C4)c3)nc(=O)c1-2 (centres unmarked) [43 (b), 1-cyclopentyl-3-ethyl-6-[3-(1-methyl-3-hexahydroazepinyloxy)phenyl]pyrazolo[3,4-d]pyrimidin-4-one] | 41 | 75 | –
15 | CCOc1cc(-n2ccnc2)ccc1-c1nc2n(C3CCCC3)[nH]c(CC)c-2c(=O)n1 [46 (c), 1-cyclopentyl-3-ethyl-6-[4-(1-imidazolyl)-2-ethoxyphenyl]pyrazolo[3,4-d]pyrimidin-4-one] | 26 | 76 | inhibition at 10 µM (10 μM): 90%; pIC50: 7.74
16 | CCc1[nH]n(C2CCCC2)c2nc(-c3ccccc3)nc(=O)c1-2 [Example 2, 1-cyclopentyl-3-ethyl-6-phenyl-pyrazolo[3,4-d]pyrimidin-4-one] | – | – | pIC50: 6.60
17 | CCc1[nH]n(C2CCCC2)c2nc(-c3ccccc3O)nc(=O)c1-2 [Example 7, 1-cyclopentyl-3-ethyl-6-(2-hydroxyphenyl)pyrazolo[3,4-d]pyrimidin-4-one] | – | 20 | inhibition at 10 µM (10 μM): 51%
18 | CCc1nn(C2CCCC2)c2nc(-c3ccc(OCC(=O)O)cc3OC)[nH]c(=O)c12 [Example 14, 1-cyclopentyl-3-ethyl-6-[(2-methoxy-4-carboxymethoxy)phenyl]pyrazolo[3,4-d]pyrimidin-4-one] | – | – | pIC50: 6.09
19 | CCc1[nH]n(C2CCCC2)c2nc(-c3ccccc3C(F)(F)F)nc(=O)c1-2 [Example 15, 1-cyclopentyl-3-ethyl-6-(2-trifluoromethylphenyl)-pyrazolo[3,4-d]pyrimidin-4-one] | – | – | pIC50: 6.30
20 | CCc1nn(C2CCCC2)c2nc(-c3ccc(N)cc3)[nH]c(=O)c12 [Example 31, 1-cyclopentyl-3-ethyl-6-(4-aminophenyl)pyrazolo[3,4-d]pyrimidin-4-one hydrochloride 1/3 hydrate] | 31 | 61 | –
21 | CCc1[nH]n(C2CCCC2)c2nc(-c3cccc(O)c3)nc(=O)c1-2 [Example 44, 1-cyclopentyl-3-ethyl-6-(3-hydroxyphenyl)pyrazolo[3,4-d]pyrimidin-4-one] | 29 | 56 | –

Continued, in another order:

Row | inhibition at 0.1 µM (0.1 μM) [%] | inhibition at 1 µM (1 μM) [%] | Molecule | also measured
22 | 21 | 73 | CCc1[nH]n(C2CCCC2)c2nc(-c3ccccc3-n3ccnc3)nc(=O)c1-2 [27 (c), 1-cyclopentyl-3-ethyl-6-[2-(1-imidazolyl)phenyl]pyrazolo[3,4-d]pyrimidin-4-one] | –
23 | 58 | – | CCc1[nH]n(C2CCCC2)c2nc(-c3ccc(OC)c(OCCN4CCOCC4)c3)nc(=O)c1-2 [35 (b), 1-cyclopentyl-3-ethyl-6-[4-methoxy-3-[2-(4-morpholinyl)ethoxy]phenyl]pyrazolo[3,4-d]pyrimidin-4-one] | inhibition at 0.01 µM (0.01 μM): 13%
24 | 31 | 73 | CCOc1cc(N(CC)CC)ccc1-c1nc2n(C3CCCC3)[nH]c(CC)c-2c(=O)n1 [37 (b), 1-cyclopentyl-3-ethyl-6-[2-ethoxy-4-(diethylamino)phenyl]pyrazolo[3,4-d]pyrimidin-4-one] | –
25 | 46 | 56 | CCc1[nH]n(C2CCCC2)c2nc(-c3cccc(OCCN4CCSCC4)c3)nc(=O)c1-2 [41 (c), 1-cyclopentyl-3-ethyl-6-[3-[2-(4-thiomorpholinyl)ethoxy]phenyl]pyrazolo[3,4-d]pyrimidin-4-one] | –
26 | 56 | – | CCc1[nH]n(C2CCCC2)c2nc(-c3cccc(OCc4ccncc4)c3)nc(=O)c1-2 [42 (c), 1-cyclopentyl-3-ethyl-6-[3-[4-pyridinylmethoxy]phenyl]pyrazolo[3,4-d]pyrimidin-4-one] | inhibition at 0.01 µM (0.01 μM): 25%
27 | – | 15 | CCc1[nH]n(C2CCCC2)c2nc(-c3ccc(OCCCN(C)C)cc3)nc(=O)c1-2 [Example 10, 1-cyclopentyl-3-ethyl-6-[4-[3-(dimethylamino)propoxy]phenyl]pyrazolo[3,4-d]pyrimidin-4-one] | inhibition at 10 µM (10 μM): 85%
28 | – | 19 | CCc1nn(C2CCCC2)c2nc(-c3ccccc3OCC(=O)O)[nH]c(=O)c12 [Example 16, 1-cyclopentyl-3-ethyl-6-[2-(carboxymethoxy)phenyl]pyrazolo[3,4-d]pyrimidin-4-one 1/2 hydrate] | inhibition at 10 µM (10 μM): 68%
29 | – | 40 | CCc1[nH]n(C2CCCC2)c2nc(-c3ccc([N+](=O)[O-])cc3)nc(=O)c1-2 [Example 28, 1-cyclopentyl-3-ethyl-6-(4-nitrophenyl)pyrazolo [3,4-d]pyrimidin-4-one] | –
30 | 9 | 53 | CCc1[nH]n(C2CCCC2)c2nc(-c3ccc(Cl)cc3O)nc(=O)c1-2 [Example 30, 1-cyclopentyl-3-ethyl-6-(4-chloro-2-hydroxyphenyl)pyrazolo[3,4-d]pyrimidin-4-one] | –
31 | 23 | 47 | CCc1nn(C2CCCC2)c2nc(-c3ccc4c(c3)CCO4)[nH]c(=O)c12 [Example 32, 1-cyclopentyl-3-ethyl-6-(2,3-dihydrobenzo[b]furan-5-yl)pyrazolo[3,4-d]pyrimidin-4-one 1/10 hydrate] | –
32 | 21 | 56 | CCc1[nH]n(C2CCCC2)c2nc(-c3ccc(NS(C)(=O)=O)cc3)nc(=O)c1-2 [Example 33, 1-cyclopentyl-3-ethyl-6-[4-(methylsulfonylamino)phenyl]pyrazolo[3,4-d]pyrimidin-4-one] | –
33 | 0 | 4 | C=CCc1cccc(-c2nc3n(C4CCCC4)[nH]c(CC)c-3c(=O)n2)c1O [Example 36, 1-cyclopentyl-3-ethyl-6-[2-hydroxy-3-(2-propenyl)phenyl]pyrazolo[3,4-d]pyrimidin-4-one] | –
